Tested on: rat urinary bladder
Assay: In situ rat urinary bladder preparation, NKA-induced bladder contraction
Type: in vivo
Experimental: FIG. 6. […] Continuous tracing shown for each animal.
Rats, (female Sprague-Dawley, 150-200 g) were anesthetized with ketamine HCl (100 mg/kg i.p.) supplemented with urethane (1.2 g/kg i.p.). […] A needle was inserted into the apex of the bladder dome and saline was perfused through the bladder at a rate of 100 μl per minute. Bladder outflow was collected via a polyethylene cannula inserted into the urethra. Bladder contractions were monitored through a flow pressure transducer connected in series with the perfusion system. Test compounds were applied onto the bladder dome in 40-100 μl of saline or saline containing a minimum of DMSO. […] Antagonist was similarly applied onto the bladder 5 min before a repeated application of NKA. […] Amplitude (force) of contraction and 1-min time intervals were recorded continuously for each animal.

## neurokinin A [NKA]
Anesthetized rats, 10 μg topical
  Effect on bladder contraction when applied onto the dome of the exposed bladder: sustained tonic contraction and an increase in frequency
Applied onto bladder dome, anesthetized rats
  Threshold concentration for contraction: approximately 10 μg
Repeated application of 10 μg
  Tachyphylaxis on repeated application: did not result in any tachyphylaxis

Reference: patent US5731286A, “Cyclic neurokinin A antagonists” (Merrell Pharmaceuticals, Inc., priority 1997, dated 1998)
